Assay results published in paper PMC9675719, “Expedient Synthesis of a Library of Heparan Sulfate‐Like “Head‐to‐Tail” Linked Multimers for Structure and Activity Relationship Studies” (Angewandte Chemie (International Ed. in English), 2022).
Read-outs that look alike come from different tables or passages of the source.

How the values were obtained:
FGF-2 [1] = target: T1, FGF-2 (Homo sapiens, UniProt P09038); parameters: method as in PMID 17066397; conditions: glycan microarray, glycan concentration 16 μM; cited from earlier work
T1 sequence (P09038 134-288 limits assumed, species assumed): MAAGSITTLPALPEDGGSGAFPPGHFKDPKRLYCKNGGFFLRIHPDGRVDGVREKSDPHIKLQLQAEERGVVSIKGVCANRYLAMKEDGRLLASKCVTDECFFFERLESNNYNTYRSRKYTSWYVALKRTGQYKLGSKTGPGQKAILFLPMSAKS

FGF-2 [2] = target: T1, FGF-2; assay: Competition SPR assay: inhibition of FGF-2 interaction with immobilized biotinylated heparin; assay type: binding; conditions: for IC50: immobilized biotinylated heparin, FGF-2 50 nM, read-out: IC50 (amount of mimetic needed to reduce the FGF-2 binding by 50 %)
Procedure: A competition SPR assay was performed to establish the SAR between the full panel of 27 HS‐like pseudo‐hexasaccharides and FGF‐2 (Figure 4). Biotinylated heparin was immobilized on the biosensor, and the pseudo‐hexasaccharides (10 μM) were mixed with FGF‐2 (50 nM) individually. […] The trend of 33, 33 z and 33 m in the order of decreasing FGF‐2 affinity is consistent with that observed in the direct binding SPR study (Figures 3 and S1). The IC50 values of several disaccharides and pseudo‐tetrasaccharides with FGF‐2 have also been measured. The disaccharides bound weakly with FGF‐2, and the fully sulfated pseudo‐tetrasaccharide gave the strongest binding among the pseudo‐tetrasaccharides tested, which in turn was much weaker than that of the pseudo‐hexasaccharide 33 (Figure S2).
Figure 4 Inhibition of 27 pseudo‐hexasaccharides (33, 33 a–z) on FGF‐2 interaction with heparin through a competition SPR assay. Biotinylated heparin was immobilized on the SPR biosensor. For the control well, FGF‐2 (50 nM) was flown over the sensor and the intensity of the signal due to FGF‐2 binding was set as a reference (100 %). […] Normalized FGF‐2 binding % was calculated based on the following formula: (signal intensity of FGF‐2/pseudo‐hexasaccharide)/(signal intensity of FGF‐2 only)×100 %. […]
FGF-2 was immobilized on sensor chip by primary amine coupling reaction. […] Solutions of various concentrations of pseudo-hexasaccharides 33, 33z, and 33m dissolved in 0.01% Tween 20 PBS buffer were injected over the FGF-2 chip at a flow rate of 30 µL/min, and the responses to binding were recorded .
Aqueous NaCl solution (2.0 M) was employed for regeneration to achieve baseline status after each run. Sensorgrams were evaluated using the Qdat program. […] The KD values were calculated by the Qdat software. […]
Heparin SPR chip was prepared by immobilizing biotinylated heparin on SA sensor chip (Cytiva, Uppsala, Sweden).[13] […] Normalized FGF - 2 binding % was calculated based on the following formula: (signal intensity o f FGF-2/pseudohexasaccharide)/(signal intensity of FGF -2 only) x 100%. […]

FGF-2 [3] = target: T1, FGF-2; assay: Direct binding SPR with FGF-2 immobilized on CDH sensor chip
Procedure: The direct binding of FGF‐2 to the HS mimetics was measured by surface plasmon resonance (SPR). FGF‐2 was immobilized on a carboxymethyl dextran high capacity (CDH) sensor chip surface through carbodiimide mediated coupling. O‐/N‐Sulfated (33), O‐sulfated (33 z) and N‐sulfated (33 m) pseudo‐hexasaccharides were selected as analytes in addition to the heparin polysaccharide (MW: 17.2 kDa). […] Seeberger and co‐workers studied the binding of HS hexasaccharides with FGF‐2 through a powerful glycan microarray technology.[36] […] The N‐acetylated, O‐sulfated hexasaccharide 35 gave binding of ≈20 % of that of heparin, while the hexasaccharide 36 having three N‐sulfates only gave the lowest signal (<2%) binding to FGF‐2. The trend of decreasing FGF‐2 affinity from N‐ and O‐sulfated, to O‐sulfated only, to N‐sulfated only sequences of HS hexasaccharides (34, 35, 36) correlates well with those of the pseudo‐hexasaccharides 33, 33 z, and 33 m.
Figure 3 a) The SPR sensorgram of FGF‐2 binding with compound 33. The concentrations of 33 from top to bottom curves were 750 nM, 500 nM, 250 nM, 100 nM, 10 nM, and 1 nM. Each experiment was repeated at least three times with the representative data shown. The vertical line indicates the time when the dissociation process started. b) Table of K D values determined for 33, 33 z, and 33 m through the FGF‐2 SPR binding assay. c) Structures of compounds 35–38.
Measurements of binding constants of pseudo-hexasaccharides 33, 33z, and 33m with FGF-2 […]
FGF-2 was immobilized on sensor chip by primary amine coupling reaction. The surface of a CDH sensor chip (FortéBio, Inc., Molecular Devices, USA) was activated using freshly mixed N-hydroxysuccimide (NHS; 0.05 M) and 1-(3-(dimethylamino)propyl)-ethylcarbodiimide (EDC; 0.2 M) (1/1,v/v) in water, followed by the injection of FGF -2 (50 µg/ml) in PBS buffer. The remaining active esters were quenched by ethanolamine (1.0 M). Solutions of various concentrations of pseudo-hexasaccharides 33, 33z, and 33m dissolved in 0.01% Tween 20 PBS buffer were injected over the FGF-2 chip at a flow rate of 30 µL/min, and the responses to binding were recorded .
Aqueous NaCl solution (2.0 M) was employed for regeneration to achieve baseline status after each run. Sensorgrams were evaluated using the Qdat program. The response data due to association and dissociation were processed in Qdat using a reference surface to correct for any bulk refractive index changes and blank injections for double referencing . The binding profiles were fit globally into a 1:2 interaction model. The KD values were calculated by the Qdat software.
Analysis of the inhibition of pseudo-hexasaccharides on heparin/FGF-2 interaction using […]

FGF-2 [4] = target: T1, FGF-2; parameters: method as in PMID 28651046, PMID 24959968; conditions: read-out: KD of FGF-2 binding; cited from earlier work
[5] = immobilized FGF-2, 1:2 interaction model, read-out: dissociation constant (KD) of binding to FGF-2

## CC(=O)N[C@H]1[C@@H](O[C@H]2[C@H](O)[C@@H](OS(=O)(=O)O)[C@H](OCCCCCN)O[C@H]2C(=O)O)O[C@H](COS(=O)(=O)O)[C@@H](O[C@@H]2O[C@@H](C(=O)O)[C@@H](O[C@H]3O[C@H](COS(=O)(=O)O)[C@@H](O[C@@H]4O[C@@H](C(=O)O)[C@@H](O[C@H]5O[C@H](COS(=O)(=O)O)[C@@H](O)[C@H](O)[C@H]5NC(C)=O)[C@H](O)[C@H]4OS(=O)(=O)O)[C@H](O)[C@H]3NC(C)=O)[C@H](O)[C@H]2OS(=O)(=O)O)[C@@H]1O [compound 35]
FGF-2 [1]
  binding to FGF-2 as compared to heparin polysaccharide: ≈ 20%

## NCCCCCO[C@@H]1O[C@@H](C(=O)O)[C@@H](O[C@H]2O[C@H](CO)[C@@H](O[C@@H]3O[C@@H](C(=O)O)[C@@H](O[C@H]4O[C@H](CO)[C@@H](O[C@@H]5O[C@@H](C(=O)O)[C@@H](O[C@H]6O[C@H](CO)[C@@H](O)[C@H](O)[C@H]6NS(=O)(=O)O)[C@H](O)[C@H]5O)[C@H](O)[C@H]4NS(=O)(=O)O)[C@H](O)[C@H]3O)[C@H](O)[C@H]2NS(=O)(=O)O)[C@H](O)[C@H]1O [compound 36]
FGF-2 [1]
  binding to FGF-2 as compared to heparin polysaccharide: < 2%

## NCCS(=O)(=O)CCCCCO[C@@H]1O[C@@H](C(=O)O)[C@@H](O[C@H]2O[C@H](COS(=O)(=O)O)[C@@H](O[C@@H]3O[C@@H](C(=O)O)[C@@H](O[C@H]4O[C@H](COS(=O)(=O)O)[C@@H](O[C@@H]5O[C@@H](C(=O)O)[C@@H](O[C@H]6O[C@H](COS(=O)(=O)O)[C@@H](O)[C@H](O)[C@H]6NS(=O)(=O)O)[C@H](O)[C@H]5OS(=O)(=O)O)[C@H](O)[C@H]4NS(=O)(=O)O)[C@H](O)[C@H]3OS(=O)(=O)O)[C@H](O)[C@H]2NS(=O)(=O)O)[C@H](O)[C@H]1OS(=O)(=O)O [compound 34]
FGF-2 [1]
  binding to FGF-2 as compared to heparin polysaccharide: ≈ 60%

## CC(=O)NCCO[C@@H]1O[C@@H](C(=O)O)[C@@H](O[C@H]2O[C@H](COS(=O)(=O)O)[C@@H](OCCC(=O)NCCO[C@@H]3O[C@@H](C(=O)O)[C@@H](O[C@H]4O[C@H](COS(=O)(=O)O)[C@@H](OCCC(=O)NCCO[C@@H]5O[C@@H](C(=O)O)[C@@H](O[C@H]6O[C@H](COS(=O)(=O)O)[C@@H](OCCC(=O)O)[C@H](O)[C@H]6NC(C)=O)[C@H](O)[C@H]5OS(=O)(=O)O)[C@H](O)[C@H]4NC(C)=O)[C@H](O)[C@H]3OS(=O)(=O)O)[C@H](O)[C@H]2NC(C)=O)[C@H](O)[C@H]1OS(=O)(=O)O [33 z]
FGF-2 [2]
  IC50: ~100000 nM
FGF-2 [3]; [5]
  Kd: 0.94 µM

## CO[C@@H]1O[C@@H](C(=O)O)[C@@H](O[C@H]2O[C@H](COS(=O)(=O)O)[C@@H](O)[C@H](O)[C@H]2NS(=O)(=O)O)[C@H](O)[C@H]1OS(=O)(=O)O [compound 37]
FGF-2 [4]
  Kd: 17500 nM

## NCCCCCO[C@H]1O[C@H](COS(=O)(=O)O)[C@@H](O[C@@H]2O[C@@H](C(=O)O)[C@@H](O[C@H]3O[C@H](COS(=O)(=O)O)[C@@H](O[C@@H]4O[C@@H](C(=O)O)[C@@H](O)[C@H](O)[C@H]4O)[C@H](O)[C@H]3NS(=O)(=O)O)[C@H](O)[C@H]2OS(=O)(=O)O)[C@H](O)[C@H]1NS(=O)(=O)O [compound 38]
FGF-2 [4]
  Kd: 1200 nM

## CC(=O)NCCO[C@@H]1O[C@@H](C(=O)O)[C@@H](O[C@H]2O[C@H](COS(=O)(=O)O)[C@@H](OCCC(=O)NCCO[C@@H]3O[C@@H](C(=O)O)[C@@H](O[C@H]4O[C@H](COS(=O)(=O)O)[C@@H](OCCC(=O)NCCO[C@@H]5O[C@@H](C(=O)O)[C@@H](O[C@H]6O[C@H](COS(=O)(=O)O)[C@@H](OCCC(=O)O)[C@H](O)[C@H]6NS(=O)(=O)O)[C@H](O)[C@H]5OS(=O)(=O)O)[C@H](O)[C@H]4NS(=O)(=O)O)[C@H](O)[C@H]3OS(=O)(=O)O)[C@H](O)[C@H]2NS(=O)(=O)O)[C@H](O)[C@H]1OS(=O)(=O)O [compound 33]
FGF-2 [2]
  IC50: 1700 nM
FGF-2 [3]; [5]
  Kd: 0.0196 µM

## CC(=O)NCCO[C@@H]1O[C@@H](C(=O)O)[C@@H](O[C@H]2O[C@H](CO)[C@@H](OCCC(=O)NCCO[C@@H]3O[C@@H](C(=O)O)[C@@H](O[C@H]4O[C@H](CO)[C@@H](OCCC(=O)NCCO[C@@H]5O[C@@H](C(=O)O)[C@@H](O[C@H]6O[C@H](CO)[C@@H](OCCC(=O)O)[C@H](O)[C@H]6NS(=O)(=O)O)[C@H](O)[C@H]5O)[C@H](O)[C@H]4NS(=O)(=O)O)[C@H](O)[C@H]3O)[C@H](O)[C@H]2NS(=O)(=O)O)[C@H](O)[C@H]1O [33 m]
FGF-2 [2]; under the experimental condition
  inhibition of FGF-2/heparin interaction (in words): did not exhibit any inhibition
FGF-2 [3]; immobilized FGF-2, at 3 μM
  binding to FGF-2 (in words): little binding
FGF-2 [3]; immobilized FGF-2, value printed in μM under head KD value (nM), read-out: KD value
  Kd: > 3 µM
